Values after ≈ are worked out from the molar mass of the structure shown. Values belong to the molecule of their own block, whether it stands above or below them.
Columns and labels:
Pseudomonas aeruginosa [1] = experiment: Antibacterial activity against Pseudomonas aeruginosa persistent cells assessed as fold reduction in bacterial cell at 68 ug/ml in the presence of ofloxacin relative to ofloxacin alone; format: functional; conditions: dose 68 µg/ml
Staphylococcus aureus [2] = experiment: Antimicrobial activity against methicillin resistant Staphylococcus aureus MW2 BAA-1707 persisters assessed as inhibition of bacterial colonies; format: functional
Staphylococcus aureus [3] = experiment: Antimicrobial activity against methicillin resistant Staphylococcus aureus assessed as inhibition of bacterial growth by CLSI protocol based microdilution method; format: functional
[4] = Hemolytic activity in human erythrocytes assessed as hemolysis incubated for 1 hrs; format: toxicity, cell-based, Erythrocyte
Staphylococcus aureus [5] = experiment: Antibacterial activity against methicillin resistant Staphylococcus aureus MW2 assessed as inhibition of bacterial growth measured after 2 hrs; format: functional
[6] = Cytotoxicity against human hepatocytes assessed as reduction in cell growth by WST-1 assay; format: toxicity, cell-based, Hepatocyte; conditions: read-out: LC50 (the source's name)
Pseudomonas aeruginosa [7] = experiment: Antibacterial activity against Pseudomonas aeruginosa persistent cells assessed as fold reduction in bacterial cell in the presence of ofloxacin relative to ofloxacin alone; format: functional
Staphylococcus aureus [8] = experiment: Antibacterial activity against Staphylococcus aureus ATCC 9144 assessed as inhibition of bacterial growth incubated for 24 hrs; format: functional
Staphylococcus aureus [9] = experiment: Antimicrobial activity against vancomycin resistant Staphylococcus aureus assessed as inhibition of bacterial growth by CLSI protocol based microdilution method; format: functional
Streptococcus mutans = experiment: Antibacterial activity against wild type planktonic Streptococcus mutans UA159 assessed as inhibition of bacterial growth incubated for 20 to 24 hrs; format: functional; conditions: time 20-24 hrs
Enterobacter sp. = experiment: Antibacterial activity against Enterobacter sp. assessed as inhibition of bacterial growth by microplate reader analysis; format: functional
Klebsiella pneumoniae = experiment: Antibacterial activity against Klebsiella pneumoniae assessed as inhibition of bacterial growth by microplate reader analysis; format: functional
Pseudomonas aeruginosa [10] = experiment: Antibacterial activity against Pseudomonas aeruginosa assessed as inhibition of bacterial growth by microplate reader analysis; format: functional
Acinetobacter baumannii = experiment: Antibacterial activity against Acinetobacter baumannii assessed as inhibition of bacterial growth by microplate reader analysis; format: functional
Staphylococcus aureus [11] = experiment: Antibacterial activity against Staphylococcus aureus assessed as inhibition of bacterial growth by microplate reader analysis; format: functional
Enterococcus faecium = experiment: Antibacterial activity against Enterococcus faecium assessed as inhibition of bacterial growth by microplate reader analysis; format: functional
Staphylococcus aureus [12] = experiment: Antibacterial activity against methicillin resistant Staphylococcus aureus R3890 assessed as inhibition of bacterial growth incubated for 24 hrs by broth microdilution method; format: functional
Staphylococcus aureus [13] = experiment: Antibacterial activity against methicillin resistant Staphylococcus aureus R3889 assessed as inhibition of bacterial growth incubated for 24 hrs by broth microdilution method; format: functional
Staphylococcus aureus [14] = experiment: Antibacterial activity against methicillin resistant Staphylococcus aureus ATCC 33591 assessed as inhibition of bacterial growth incubated for 24 hrs by broth microdilution method; format: functional
Pseudomonas aeruginosa [15] = experiment: Antibacterial activity against Pseudomonas aeruginosa assessed as inhibition of bacterial growth; format: functional
Staphylococcus aureus [16] = experiment: Antibacterial activity against Staphylococcus aureus assessed as inhibition of bacterial growth; format: functional

SMILES: O[C@H](CNCCc1ccc(Cl)cc1Cl)COc1ccccc1
fold change (FC) (Pseudomonas aeruginosa [1]): 7200

SMILES: O=C(O)c1c(Oc2ccc(I)cc2)c2cc(Cl)ccc2n1Cc1ccc(Cl)cc1
Activity (Staphylococcus aureus [2]): 16 µg/mL
MIC (Staphylococcus aureus [3]): 1 µg/mL (≈ 1.86 µM)
HC50 at 1 h [4]: > 64 µg/mL

SMILES: O=C(O)c1ccc2cc(-c3ccc(O)c(C45CC6CC(CC(C6)C4)C5)c3)ccc2c1 [O-DEMETHYLATED ADAPALENE]
MIC (Staphylococcus aureus [5]): 1 µg/mL (≈ 2.51 µM)
CC50 [6]: 20 µg/mL (≈ 50.2 µM)
HC50 at 1 h [4]: 32 µg/mL

SMILES: O[C@H](CNCc1ccccc1)COc1ccc(Cl)cc1Cl
fold change (FC) (Pseudomonas aeruginosa [7]): >2000

SMILES: O=C(O)c1c(Sc2ccccc2)c2cc(Cl)ccc2n1Cc1ccc(Cl)cc1
Activity (Staphylococcus aureus [2]): 64 µg/mL
MIC (Staphylococcus aureus [3]): 4 µg/mL (≈ 9.34 µM)
HC50 at 1 h [4]: 47 µg/mL

SMILES: Oc1c(Cl)cc(Cl)cc1Sc1cc(Cl)cc(Cl)c1O [BITHIONOL]
MIC50 (Staphylococcus aureus [8]): 8 µM (≈ 2.85 µg/mL)
MIC (Staphylococcus aureus [9]): 0.5 µg/mL (≈ 1.4 µM)

MIC (Streptococcus mutans): 0.65 µg/mL (≈ 1.99 µM)
SMILES: CC(C)(C)c1ccc(CCc2ccc(C(C)(C)C)c(O)c2)cc1O

MIC (Streptococcus mutans): 66.6 µg/mL (≈ 250 µM)
SMILES: C=CCc1ccc(O)c(-c2ccc(O)c(CC=C)c2)c1 [HONOKIOL]

MIC (Enterobacter sp.): 0.02 µg/mL (≈ 0.0547 µM)
MIC (Klebsiella pneumoniae): 0.02 µg/mL (≈ 0.0547 µM)
MIC (Pseudomonas aeruginosa [10]): 0.02 µg/mL (≈ 0.0547 µM)
MIC (Acinetobacter baumannii): 0.02 µg/mL (≈ 0.0547 µM)
MIC (Staphylococcus aureus [11]): 0.02 µg/mL (≈ 0.0547 µM)
MIC (Enterococcus faecium): 0.02 µg/mL (≈ 0.0547 µM)
SMILES: Nc1nc(N)c2c(ccc3c2ccn3Cc2ccc(-c3ccccc3)cc2)n1

SMILES: CCCCCCCCCCN(Cc1cccc2ccccc12)C(=O)[C@@H](N)CCCCN
MIC (Staphylococcus aureus [12]): 4.1 µg/mL (≈ 9.63 µM)
MIC (Staphylococcus aureus [13]): 4.1 µg/mL (≈ 9.63 µM)
MIC (Staphylococcus aureus [14]): 4.1 µg/mL (≈ 9.63 µM)

MIC (Enterobacter sp.): 2 µg/mL (≈ 5.38 µM)
MIC (Klebsiella pneumoniae): 2 µg/mL (≈ 5.38 µM)
MIC (Pseudomonas aeruginosa [10]): 2 µg/mL (≈ 5.38 µM)
MIC (Acinetobacter baumannii): 2 µg/mL (≈ 5.38 µM)
MIC (Staphylococcus aureus [11]): 2 µg/mL (≈ 5.38 µM)
MIC (Enterococcus faecium): 2 µg/mL (≈ 5.38 µM)
SMILES: CC(C)c1ccc(Cn2ccc3c4c(N)nc(NC5CC5)nc4ccc32)cc1

SMILES: CCC(C)NCC(O)Cn1c2ccc(Cl)cc2c2cc(Cl)ccc21 (configuration not stated)
MIC (Pseudomonas aeruginosa [15]): 4.63 µg/mL (≈ 12.7 µM)
MIC (Staphylococcus aureus [16]): 4.63 µg/mL (≈ 12.7 µM)
